test system: not listed separately; test: Water solubility testing of compounds (HPLC); settings: deionized water, 37 °C

Row | SMILES | Water-solubility [µg/mL]
1 | CC(C)N(C[C@@H]1C(=O)O[C@H]2[C@H]1CC[C@@]1(C)C[C@]13CC[C@@](C)(O)[C@H]23)C(C)C [Compound 12] | 802
2 | C[C@@]12CC[C@@H]3[C@H](OC(=O)[C@H]3CN3CCC3)[C@@H]3[C@]1(CC[C@@]3(C)O)C2 [Compound 14] | 460
3 | C[C@@]12CC[C@@H]3[C@H](OC(=O)[C@H]3CN3CCC(N4CCCCC4)CC3)[C@@H]3[C@]1(CC[C@@]3(C)O)C2 [Compound 16] | 285
4 | C[C@@]12CC[C@@H]3[C@H](OC(=O)[C@H]3CN3CCC(N4CCOCC4)CC3)[C@@H]3[C@]1(CC[C@@]3(C)O)C2 [Compound 17] | 942

test system: T cells / MDSCs; test: Promotion of T cell proliferation in a co-culture model of MDSCs and T cells; assay type: cell-based, mouse; settings: 1 μM, MDSCs treated 12 hours, co-culture of MDSCs and T cells, compared to the control group
Description: Under sterile conditions, the tibia was removed, both ends of the bone were cut, and bone marrow was repeatedly flushed into a 15 mL centrifuge tube using a 1 mL syringe filled with culture medium. Centrifuge at 1600 rpm for 5 min to collect bone marrow cells. […] The spleen cell suspension was then transferred into a 15 mL centrifuge tube. Centrifuge at 1600 rpm for 5 min to collect T cells. Wash twice with 1×PBS. Resuspend the centrifuged T cells in 1 mL PBS and add 1 mL of 10 μM CFDA-SE solution. Incubate at room temperature for 8 min. […] After drug administration, collect MDSC cells into centrifuge tubes. Centrifuge at 1600 rpm for 5 min, remove supernatant, resuspend in 1 mL fresh medium, and plate. Add 1 mL stimulated activated T cells (1:1 ratio) for 48 h co-culture. After incubation, collect cells into centrifuge tubes, wash twice with PBS, and incubate with Fc antibody at room temperature in the dark for 10 min. Add CD3-labeled flow cytometry antibody and incubate at 4° C. in the dark for 30 min. After incubation, wash cells with PBS, resuspend in 300 μL PBS, and analyze by flow cytometry.

Row | SMILES | T-cell proliferation rate (%)
5 | CC1CCN(C[C@@H]2C(=O)O[C@H]3[C@H]2CC[C@@]2(C)C[C@]24CC[C@@](C)(O)[C@H]34)CC1 [Compound 43] | + (T-cell proliferation rate within the 0-20% range compared to the control group)
6 | CC1=C2CC[C@@](C)(OC(=O)N3CCCC3)[C@@H]2[C@H]2OC(=O)C(CN3CCCC3)[C@@H]2CC1 (stereo partly drawn) [compound 104] | + (T-cell proliferation rate within the 0-20% range compared to the control group)

same assay, conditions: Mus musculus, T-cell, 12 h, read-out: T-cell proliferation rate (%), 1 μM, MDSCs treated 12 hours, co-culture of MDSCs and T cells, compared to the control group

Row | SMILES | activation at 1 µM [%]
7 | C[C@@]12CC[C@@H]3[C@H](OC(=O)[C@H]3CN3CCNCC3)[C@@H]3[C@]1(CC[C@@]3(C)O)C2 [Compound 7] | 0 to 20
8 | CC(C)(C)OC(=O)N1CCN(C[C@@H]2C(=O)O[C@H]3[C@H]2CC[C@@]2(C)C[C@]24CC[C@@](C)(O)[C@H]34)CC1 [Compound 44] | 0 to 20
9 | CN(C)C[C@@H]1C(=O)O[C@H]2[C@H]1CC[C@@]1(C)C[C@]13C[C@@H](O)[C@@](C)(O)[C@H]23 [Compound 60] | 0 to 20
10 | CC1=C2[C@H]3OC(=O)[C@@H](CN(C)C)[C@@H]3CC[C@@]3(C)C[C@@]23CC1 [Compound 62] | 0 to 20
11 | CCC(=O)O[C@]1(C)CC[C@@]23C[C@]2(C)CC[C@@H]2[C@H](CC(=O)[C@H]2CN(C)C)[C@H]31 [Compound 63] | 0 to 20
12 | C=C1C(=O)O[C@H]2[C@H]1CCC(C)=C1CC[C@@](C)(OC(=O)NC)[C@@H]12 [Compound 64] | > 40
13 | C=C1C(=O)O[C@H]2[C@H]1CCC(C)=C1CC[C@@](C)(OC(=O)NCC)[C@@H]12 [Compound 65] | 0 to 20
14 | C=C1C(=O)O[C@H]2[C@H]1CCC(C)=C1CC[C@@](C)(OC(=O)NCCC)[C@@H]12 [Compound 66] | 0 to 20
15 | C=C1C(=O)O[C@H]2[C@H]1CCC(C)=C1CC[C@@](C)(OC(=O)NCCCC)[C@@H]12 [Compound 67] | 20 to 40
16 | C=C1C(=O)O[C@H]2[C@H]1CCC(C)=C1CC[C@@](C)(OC(=O)NC(C)C)[C@@H]12 [Compound 68] | 0 to 20
17 | C=C1C(=O)O[C@H]2[C@H]1CCC(C)=C1CC[C@@](C)(OC(=O)NC(CC)CC)[C@@H]12 [Compound 69] | 20 to 40
18 | C=C1C(=O)O[C@H]2[C@H]1CCC(C)=C1CC[C@@](C)(OC(=O)NC3CC3)[C@@H]12 [Compound 70] | 0 to 20
19 | C=C1C(=O)O[C@H]2[C@H]1CCC(C)=C1CC[C@@](C)(OC(=O)NCCO)[C@@H]12 [Compound 71] | > 40
20 | C=C1C(=O)O[C@H]2[C@H]1CCC(C)=C1CC[C@@](C)(OC(=O)NCCCO)[C@@H]12 [Compound 72] | 20 to 40
21 | C=C1C(=O)O[C@H]2[C@H]1CCC(C)=C1CC[C@@](C)(OC(=O)NCCCCCO)[C@@H]12 [Compound 73] | 20 to 40
22 | C=C1C(=O)O[C@H]2[C@H]1CCC(C)=C1CC[C@@](C)(OC(=O)NCCOC)[C@@H]12 [Compound 74] | > 40
23 | C=C1C(=O)O[C@H]2[C@H]1CCC(C)=C1CC[C@@](C)(OC(=O)NCCCOC)[C@@H]12 [Compound 75] | 20 to 40
24 | C=C1C(=O)O[C@H]2[C@H]1CCC(C)=C1CC[C@@](C)(OC(=O)NCCOCCO)[C@@H]12 [Compound 76] | 20 to 40

Row | SMILES | activation at 1 µM [%]
25 | C=C1C(=O)O[C@H]2[C@H]1CCC(C)=C1CC[C@@](C)(OC(=O)NCCN(C)C)[C@@H]12 [Compound 77] | 0 to 20
26 | C=C1C(=O)O[C@H]2[C@H]1CCC(C)=C1CC[C@@](C)(OC(=O)NCc3ccccc3)[C@@H]12 [Compound 79] | 20 to 40
27 | C=C1C(=O)O[C@H]2[C@H]1CCC(C)=C1CC[C@@](C)(OC(=O)N(C)C)[C@@H]12 [Compound 80] | 20 to 40
28 | C=C1C(=O)O[C@H]2[C@H]1CCC(C)=C1CC[C@@](C)(OC(=O)N(CC)CC)[C@@H]12 [Compound 81] | 20 to 40
29 | C=C1C(=O)O[C@H]2[C@H]1CCC(C)=C1CC[C@@](C)(OC(=O)N3CCC(C)CC3)[C@@H]12 [Compound 84] | 20 to 40
30 | C=C1C(=O)O[C@H]2[C@H]1CCC(C)=C1CC[C@@](C)(OC(=O)N3CCN(C)CC3)[C@@H]12 [Compound 85] | 0 to 20
31 | C=C1C(=O)O[C@H]2[C@H]1CCC(C)=C1CC[C@@](C)(OC(=O)N3CCN(CC)CC3)[C@@H]12 [Compound 86] | 20 to 40
32 | C=C1C(=O)O[C@H]2[C@H]1CCC(C)=C1CC[C@@](C)(OC(=O)N3CCOCC3)[C@@H]12 [Compound 87] | > 40
33 | C=C1C(=O)O[C@H]2[C@H]1CCC(C)=C1CC[C@@](C)(OC(=O)NCC(C)C)[C@@H]12 [Compound 88] | 20 to 40
34 | C=C1C(=O)O[C@H]2[C@H]1CCC(C)=C1CC[C@@](C)(OC(=O)NCC(F)F)[C@@H]12 [Compound 89] | 20 to 40
35 | C=C1C(=O)O[C@H]2[C@H]1CCC(C)=C1CC[C@@](C)(OC(=O)N(C)CCC)[C@@H]12 [Compound 90] | 20 to 40
36 | C=C1C(=O)O[C@H]2[C@H]1CCC(C)=C1CC[C@@](C)(OC(=O)N(CC)CCC)[C@@H]12 [Compound 91] | 20 to 40
37 | C=C1C(=O)O[C@H]2[C@H]1CCC(C)=C1CC[C@@](C)(OC(=O)NCCCN3CCOCC3)[C@@H]12 [Compound 92] | 20 to 40
38 | C=C1C(=O)O[C@H]2[C@H]1CCC(C)=C1CC[C@@](C)(OC(=O)NCCCN3CCN(C)CC3)[C@@H]12 [Compound 93] | 20 to 40
39 | C=C1C(=O)O[C@H]2[C@H]1CCC(C)=C1CC[C@@](C)(OC(=O)N3CCC(N4CCOCC4)CC3)[C@@H]12 [Compound 94] | 20 to 40
40 | C=C1C(=O)O[C@H]2[C@H]1CCC(C)=C1CC[C@@](C)(OC(=O)NCCN3CCN(C)CC3)[C@@H]12 [Compound 95] | 20 to 40
41 | CC1=C2CC[C@@](C)(OC(=O)N3CCCCC3)[C@@H]2[C@H]2OC(=O)[C@@H](CN3CCCC3)[C@@H]2CC1 [Compound 96] | 0 to 20
42 | CC1=C2CC[C@@](C)(OC(=O)N3CCCCC3)[C@@H]2[C@H]2OC(=O)[C@@H](CN(C)C)[C@@H]2CC1 [Compound 97] | 0 to 20
